Results as given in ChEMBL document CHEMBL3745650, “Anti-inflammatory properties of quebecol and its derivatives” (Bioorg Med Chem Lett, 2016).

What was measured:
[1] = Antiinflammatory activity in human U937-3xkB-luc cells assessed as inhibition of LPS-induced NFkappaB activation at 5 uM preincubated for 30 mins followed by LPS-stimulation measured after 6 hrs by luciferase assay relative to control; format: functional; details: U-937
[2] = Antiinflammatory activity in PMA-differentiated human U937 cells assessed as inhibition of LPS-stimulated IL-6 secretion at 250 uM preincubated for 2 hrs followed by LPS-stimulation measured after 24 hrs by ELISA relative to control; format: functional; details: U-937
[3] = Antiinflammatory activity in human U937-3xkB-luc cells assessed as inhibition of LPS-induced NFkappaB activation at 100 uM preincubated for 30 mins followed by LPS-stimulation measured after 6 hrs by luciferase assay relative to control; format: functional; details: U-937
[4] = Antiinflammatory activity in PMA-differentiated human U937 cells assessed as inhibition of LPS-stimulated TNF-alpha secretion at 250 uM preincubated for 2 hrs followed by LPS-stimulation measured after 24 hrs by ELISA relative to control; format: functional; details: U-937
[5] = Antiinflammatory activity in PMA-differentiated human U937 cells assessed as inhibition of LPS-stimulated IL-6 secretion at 500 uM preincubated for 2 hrs followed by LPS-stimulation measured after 24 hrs by ELISA relative to control; format: functional; details: U-937
[6] = Antiinflammatory activity in PMA-differentiated human U937 cells assessed as inhibition of LPS-stimulated IL-1beta secretion at 62.5 uM preincubated for 2 hrs followed by LPS-stimulation measured after 24 hrs by ELISA relative to control; format: functional; details: U-937
[7] = Antiinflammatory activity in PMA-differentiated human U937 cells assessed as inhibition of LPS-stimulated IL-8 secretion at 62.5 uM preincubated for 2 hrs followed by LPS-stimulation measured after 24 hrs by ELISA relative to control; format: functional; details: U-937
[8] = Antiinflammatory activity in PMA-differentiated human U937 cells assessed as inhibition of LPS-stimulated TNF-alpha secretion at 500 uM preincubated for 2 hrs followed by LPS-stimulation measured after 24 hrs by ELISA relative to control; format: functional; details: U-937
[9] = Antiinflammatory activity in PMA-differentiated human U937 cells assessed as inhibition of LPS-stimulated TNF-alpha secretion at 125 uM preincubated for 2 hrs followed by LPS-stimulation measured after 24 hrs by ELISA relative to control; format: functional; details: U-937
[10] = Antiinflammatory activity in PMA-differentiated human U937 cells assessed as inhibition of LPS-stimulated TNF-alpha secretion at 62.5 uM preincubated for 2 hrs followed by LPS-stimulation measured after 24 hrs by ELISA relative to control; format: functional; details: U-937
[11] = Antiinflammatory activity in PMA-differentiated human U937 cells assessed as inhibition of LPS-stimulated IL-8 secretion at 500 uM preincubated for 2 hrs followed by LPS-stimulation measured after 24 hrs by ELISA relative to control; format: functional; details: U-937
[12] = Antiinflammatory activity in PMA-differentiated human U937 cells assessed as inhibition of LPS-stimulated IL-6 secretion at 62.5 uM preincubated for 2 hrs followed by LPS-stimulation measured after 24 hrs by ELISA relative to control; format: functional; details: U-937
[13] = Cytotoxicity against PMA-differentiated human U937 macrophages assessed as reduction in cell viability after 24 hrs by MTT assay; format: cell-based; details: u-937, 24 h
[14] = Antiinflammatory activity in PMA-differentiated human U937 cells assessed as inhibition of LPS-stimulated IL-1beta secretion at 125 uM preincubated for 2 hrs followed by LPS-stimulation measured after 24 hrs by ELISA relative to control; format: functional; details: U-937
[15] = Antiinflammatory activity in PMA-differentiated human U937 cells assessed as inhibition of LPS-stimulated IL-8 secretion at 125 uM preincubated for 2 hrs followed by LPS-stimulation measured after 24 hrs by ELISA relative to control; format: functional; details: U-937
[16] = Antiinflammatory activity in human U937-3xkB-luc cells assessed as inhibition of LPS-induced NFkappaB activation at 20 uM preincubated for 30 mins followed by LPS-stimulation measured after 6 hrs by luciferase assay relative to control; format: functional; details: U-937
[17] = Antiinflammatory activity in PMA-differentiated human U937 cells assessed as inhibition of LPS-stimulated IL-1beta secretion at 250 uM preincubated for 2 hrs followed by LPS-stimulation measured after 24 hrs by ELISA relative to control; format: functional; details: U-937
[18] = Antiinflammatory activity in PMA-differentiated human U937 cells assessed as inhibition of LPS-stimulated IL-6 secretion at 125 uM preincubated for 2 hrs followed by LPS-stimulation measured after 24 hrs by ELISA relative to control; format: functional; details: U-937
[19] = Antiinflammatory activity in PMA-differentiated human U937 cells assessed as inhibition of LPS-stimulated IL-8 secretion at 250 uM preincubated for 2 hrs followed by LPS-stimulation measured after 24 hrs by ELISA relative to control; format: functional; details: U-937
[20] = Antiinflammatory activity in PMA-differentiated human U937 cells assessed as inhibition of LPS-stimulated IL-1beta secretion at 500 uM preincubated for 2 hrs followed by LPS-stimulation measured after 24 hrs by ELISA relative to control; format: functional; details: U-937
[21] = tested on: U-937; assay: (§1) Antiinflammatory activity in PMA-differentiated human U937 cells assessed as inhibition of LPS-stimulated IL-6 secretion preincubated for 2 hrs followed by LPS-stimulation measured after 24 hrs by ELISA relative to control; format: functional
[22] = tested on: U-937; assay: (§2) Antiinflammatory activity in PMA-differentiated human U937 cells assessed as inhibition of LPS-stimulated TNF-alpha secretion preincubated for 2 hrs followed by LPS-stimulation measured after 24 hrs by ELISA relative to control; format: functional
[23] = Antiinflammatory activity in PMA-differentiated human U937 cells assessed as inhibition of LPS-stimulated IL-8 secretion preincubated for 2 hrs followed by LPS-stimulation measured after 24 hrs by ELISA relative to control; format: functional, U-937
[24] = as §1; format: functional, U-937
[25] = Antiinflammatory activity in PMA-differentiated human U937 cells assessed as inhibition of LPS-stimulated IL-1beta secretion preincubated for 2 hrs followed by LPS-stimulation measured after 24 hrs by ELISA relative to control; format: functional, U-937
[26] = Antiinflammatory activity in human U937-3xkB-luc cells assessed as inhibition of LPS-induced NFkappaB activation preincubated for 30 mins followed by LPS-stimulation measured after 6 hrs by luciferase assay relative to control; format: functional, U-937
[27] = as §2; format: functional, U-937

Compound | inhibition at 5 µM [1] [%] | inhibition at 250 µM [2] [%] | inhibition at 100 µM [3] [%] | inhibition at 250 µM [4] [%] | inhibition at 500 µM [5] [%] | inhibition at 62.5 µM [6] [%] | inhibition at 62.5 µM [7] [%] | inhibition at 500 µM [8] [%] | inhibition at 125 µM [9] [%] | inhibition at 62.5 µM [10] [%] | inhibition at 500 µM [11] [%] | inhibition at 62.5 µM [12] [%] | Activity [13] [µM] | inhibition at 125 µM [14] [%] | inhibition at 125 µM [15] [%] | inhibition at 20 µM [16] [%] | inhibition at 250 µM [17] [%] | inhibition at 125 µM [18] [%] | inhibition at 250 µM [19] [%] | inhibition at 500 µM [20] [%] | further results
CCOC(=O)C(=C(c1ccc(O)c(OC)c1)c1ccc(O)c(OC)c1)c1ccc(O)c(OC)c1 | 12.8 | 99.9 | 79.9 | 100 | 99.9 | 0 | 22.7 | 100 | 92.3 | 15.9 | 99.9 | 27.3 | 62.5 | 26.2 | 99.5 | 15.9 | 85.2 | 97.2 | 99.7 | 83.9 | 
CCOC(=O)Cc1ccc(O)c(OC)c1 | 13.6 | 0 | 14.6 | 1.1 | 0 |  |  | 6.9 | 0.1 |  | 0 |  | > 1000 | 2.7 | 0 | 21.8 | 5.7 | 0 | 0 | 0 | 
COc1cc(CC(=O)O)ccc1O [HOMOVANILLIC ACID] | 24 | 0 | 22.9 | 0 | 0 |  |  | 0 | 0 |  | 0 |  | > 1000 | 5.2 | 0 | 16.3 | 5.7 | 0 | 0 | 3.6 | 
COc1cc(CCO)ccc1O | 0 | 0 | 8.3 | 5.2 | 0 |  |  | 0 | 6 |  | 0 |  | > 1000 | 24.4 | 0 | 2.6 | 17.4 | 0 | 0 | 11.3 | 
COc1cc(C(CO)C(c2ccc(O)c(OC)c2)c2ccc(O)c(OC)c2)ccc1O (stereo not drawn) | 11.2 | 62.6 | 43.4 | 17.5 | 84.3 | 1.1 | 0 | 60 | 19.8 | 0 | 0.3 | 1.1 | 500 | 25.1 | 0.2 | 13.5 | 9.4 | 45.5 | 0 | 0.9 | inhibition [21]: Dose-dependent effect; inhibition [22]: Dose-dependent effect
COc1cc(C(O)C(=O)O)ccc1O (stereo not drawn) | 0 | 0 | 16.3 | 4.6 | 0 |  |  | 0 | 0 |  | 0 |  | > 1000 | 7.4 | 0 | 5.7 | 8 | 0 | 0 | 7.2 | 
CCOC(=O)C(O)c1ccc(O)c(OC)c1 (stereo not drawn) | 16.4 | 0 | 0 | 0 | 0 |  |  | 0 | 0 |  | 0 |  | > 1000 | 4 | 0 | 6.5 | 0 | 0 | 0 | 0 | 
Cc1ccc(S(=O)(=O)/C=C/C#N)cc1 |  |  |  |  |  |  |  |  |  |  |  |  |  |  |  |  |  |  |  |  | inhibition (INH) [23]: 99.1%; inhibition (INH) [24]: 99.2%; inhibition (INH) [25]: 95.9%; inhibition (INH) [26]: 99.3%; inhibition (INH) [27]: 99.5%
CCOC(=O)C(c1ccc(O)c(OC)c1)C(c1ccc(O)c(OC)c1)c1ccc(O)c(OC)c1 (stereo not drawn) | 24 | 99.8 | 74.7 | 100 | 99.9 | 0 | 0 | 100 | 15.7 | 8.5 | 99.9 | 4.8 | 125 | 1.2 | 94.9 | 31.2 | 10.9 | 89.9 | 95 | 91.4 | 
COc1cc(Cc2ccc(O)c(OC)c2)ccc1O | 11 | 62.3 | 43.1 | 15 | 95.3 |  |  | 72.2 | 7.6 |  | 26.9 |  | 500 | 3 | 7.1 | 28.9 | 33.4 | 4.3 | 15 | 49.2 | 
